Reference: patent US20250270206A1, “COMPOSITIONS AND METHODS FOR INHIBITION OF RAS” (TheRas, Inc., priority 2022, published 2025)

Columns and labels:
[1] = target: T1, GppNHp-loaded KRAS4b (amino acids 1-169) G12C/C118S (Homo sapiens, UniProt P01116, C118S/G12C); assay: MALDI-TOF MS covalent Cys12 modification, GppNHp-loaded KRAS G12C; assay type: binding; conditions: 15 minutes reaction time, 1 μM protein, 1:2.5 protein to compound ratio
T1 construct: KRAS4b (amino acids 1-169) G12C/C118S protein; made in house
Summary of the method: (§1)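 1 μM KRAS4b(1-169) G12C/C118S loaded with GTP, GppNHp or GDP in 20 mM HEPES, 150 mM NaCl, 1 mM MgCl2, pH 7.3, treated at a 1:2.5 protein:compound ratio in the dark at room temperature. Linear-mode MALDI-TOF; percent modification = adduct peak height over total protein peak heights, at 15 min.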

pERK in NCI-H358 cells = assay: Cell-based pERK HTRF assay; conditions: Homo sapiens, 0.5 h, 30 min incubation
Summary of the method: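 KRAS G12C NCI-H358 cells in RPMI/10% FBS treated 30 min with compound, 9-point 3-fold series from 75 μM final top, 0.25% DMSO. Lysates read for phospho-ERK by HTRF (d2/Eu cryptate antibodies, 615 nm emission) after 4–24 h room-temperature incubation.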

[2] = target: T2, GDP-loaded KRAS4b (amino acids 1-169) G12C/C118S (Homo sapiens, UniProt P01116, C118S/G12C); assay: MALDI-TOF MS covalent Cys12 modification, GDP-loaded KRAS G12C; assay type: binding; conditions: 15 minutes reaction time, 1 μM protein, 1:2.5 protein to compound ratio
T2 construct: KRAS4b (amino acids 1-169) G12C/C118S protein; made in house
Summary of the method: as §1

[3] = target: T3, GTP-loaded KRAS4b (amino acids 1-169) G12C/C118S (Homo sapiens, UniProt P01116, C118S/G12C); assay: MALDI-TOF MS covalent Cys12 modification, GTP-loaded KRAS G12C; assay type: binding; conditions: 15 minutes reaction time, 1 μM protein, 1:2.5 protein to compound ratio
T3 construct: KRAS4b (amino acids 1-169) G12C/C118S protein; made in house
Summary of the method: as §1

[4] = target: T4, Avi-KRAS G12C (1-169) GppNHp/RAF1 RBD-3×FLAG (52-151) (Homo sapiens, UniProt P01116, G12C); assay: KRAS G12C-effector (RAF1 RBD) protein:protein interaction HTRF disruption assay; assay type: biochemical; conditions: PPI HTRF
T4 construct: Avi-KRAS G12C (1-169) GppNHp
Summary of the method: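 50 nM Avi-KRAS G12C (1-169) loaded with GppNHp, then 75 nM RAF1 RBD-3×FLAG, then HTRF detection mix, each step 1 h at room temperature. Buffer was 50 mM Tris pH 7.5, 100 mM NaCl, 5 mM MgCl2, 0.1% BSA, 0.01% Tween 20, 10% DMSO. Compounds titrated 30-0.02 μM (3× series). Read at 615 nm emission, reported as % activity vs DMSO (100%).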

| Compound | GppNHp-KRAS G12C percent of modification [1] | IC50 (pERK in NCI-H358 cells) [nM] | GDP-KRAS G12C percent of modification [2] | GTP-KRAS G12C percent of modification [3] | IC50 [4] [nM] |
| --- | --- | --- | --- | --- | --- |
| C=CC(=O)N1CCC(N(C)c2nc(OC[C@@H]3C[C@@H](F)CN3C)nc3c(F)c(-c4ccc(F)c5sc(N)c(C#N)c45)ncc23)[C@H]1C (stereo partly shown) [Compound 23] | A (percent of modification ≥70%) | 100 to 1000 | A (percent of modification ≥70%) | A (percent of modification ≥70%) | ≤ 500 |
| C=CC(=O)N1CCC(N(CC)c2nc(OC[C@@]34CCCN3C[C@H](F)C4)nc3c(F)c(-c4ccc(F)c5sc(N)c(C#N)c45)ncc23)[C@H]1COC (stereo partly shown) [Compound 25] | A (percent of modification ≥70%) | 100 to 1000 | A (percent of modification ≥70%) | A (percent of modification ≥70%) | ≤ 500 |
| C=CC(=O)N1CCC(N(C)c2nc(OC[C@@H]3C[C@@H](F)CN3C)nc3c(F)c(-c4ccc(F)c5sc(N)c(C#N)c45)ncc23)[C@H]1COC (stereo partly shown) [Compound 27] | A (percent of modification ≥70%) | 100 to 1000 | A (percent of modification ≥70%) | A (percent of modification ≥70%) | ≤ 500 |
| C=CC(=O)N1CCC(N(C)c2nc(OC[C@@H]3C[C@@H](OC)CN3C)nc3c(F)c(-c4ccc(F)c5sc(N)c(C#N)c45)ncc23)[C@H]1C (stereo partly shown) [Compound 28] | A (percent of modification ≥70%) | 100 to 1000 | A (percent of modification ≥70%) | A (percent of modification ≥70%) | ≤ 500 |
| C=CC(=O)N1CCC(N(CC)c2nc(OC[C@@]34CCCN3C[C@H](F)C4)nc3c(Cl)c(-c4ccc(F)c5sc(N)c(C#N)c45)ncc23)[C@H]1COC (stereo partly shown) [Compound 30] | A (percent of modification ≥70%) | 100 to 1000 | A (percent of modification ≥70%) | A (percent of modification ≥70%) | ≤ 500 |
| C=CC(=O)N1CCC(N(CC)c2nc(OC[C@@]34CCCN3C[C@H](F)C4)nc3c(Cl)c(-c4ccc(F)c5sc(N)c(C#N)c45)ncc23)[C@H]1C (stereo partly shown) [Compound 37] | A (percent of modification ≥70%) | ≤ 100 | A (percent of modification ≥70%) | A (percent of modification ≥70%) | ≤ 500 |
| C=CC(=O)N1CCC(N(C)c2nc(OC[C@@]34CCCN3C[C@H](F)C4)nc3c(Cl)c(-c4ccc(F)c5sc(N)c(C#N)c45)ncc23)[C@H]1CC (stereo partly shown) [Compound 38] | A (percent of modification ≥70%) | ≤ 100 | A (percent of modification ≥70%) | A (percent of modification ≥70%) | ≤ 500 |
| C=CC(=O)N1CCC(N(C)c2nc(OC[C@@]34CCCN3C[C@H](F)C4)nc3c(F)c(-c4ccc(F)c5sc(N)c(C#N)c45)ncc23)[C@H]1CC (stereo partly shown) [Compound 39] | A (percent of modification ≥70%) | 100 to 1000 | A (percent of modification ≥70%) | A (percent of modification ≥70%) | ≤ 500 |
| C=CC(=O)N1CCC(N(CC)c2nc(OC[C@@]34CCCN3C[C@H](F)C4)nc3c(F)c(-c4ccc(F)c5sc(N)c(C#N)c45)ncc23)[C@H]1CC (stereo partly shown) [Compound 40] | A (percent of modification ≥70%) | 100 to 1000 | A (percent of modification ≥70%) | A (percent of modification ≥70%) | ≤ 500 |
| C=CC(=O)N1CCC(N(CC)c2nc(OC[C@@]34CCCN3C[C@H](F)C4)nc3c(Cl)c(-c4ccc(F)c5sc(N)c(C#N)c45)ncc23)[C@H]1CC (stereo partly shown) [Compound 41] | A (percent of modification ≥70%) | 100 to 1000 | A (percent of modification ≥70%) | A (percent of modification ≥70%) | ≤ 500 |
| C=CC(=O)N1CC[C@@H](N(C)c2nc(OC[C@@]34CCCN3C[C@H](F)C4)nc3c(F)c(-c4ccc(F)c5sc(N)c(C#N)c45)ncc23)[C@H]1CC [Compound 42] | A (percent of modification ≥70%) | 100 to 1000 | A (percent of modification ≥70%) | A (percent of modification ≥70%) | ≤ 500 |
| C=CC(=O)N1CC[C@@H](N(CC)c2nc(OC[C@@]34CCCN3C[C@H](F)C4)nc3c(Cl)c(-c4ccc(F)c5sc(N)c(C#N)c45)ncc23)[C@H]1CC [Compound 43] | A (percent of modification ≥70%) | 100 to 1000 | A (percent of modification ≥70%) | A (percent of modification ≥70%) | ≤ 500 |
| C=CC(=O)N1CC[C@@H](N(C)c2nc(OC[C@@]34CCCN3C[C@H](F)C4)nc3c(F)c(-c4ccc(F)c5sc(N)c(C#N)c45)ncc23)[C@@H]1CC [Compound 44] | C (10%≤percent of modification <50%) | 100 to 1000 | A (percent of modification ≥70%) | D (percent of modification <10%) | 500 to 5000 |
| C=CC(=O)N1CC[C@@H](N(C)c2nc(OC[C@@]34CCCN3C[C@H](F)C4)nc3c(Cl)c(-c4ccc(F)c5sc(N)c(C#N)c45)ncc23)[C@@H]1CC [Compound 45] | C (10%≤percent of modification <50%) | 100 to 1000 | A (percent of modification ≥70%) | D (percent of modification <10%) | 500 to 5000 |
| C=CC(=O)N1CC[C@@H](N(CC)c2nc(OC[C@@]34CCCN3C[C@H](F)C4)nc3c(F)c(-c4ccc(F)c5sc(N)c(C#N)c45)ncc23)[C@H]1CC [Compound 46] | A (percent of modification ≥70%) | 100 to 1000 | A (percent of modification ≥70%) | A (percent of modification ≥70%) | ≤ 500 |
| C=CC(=O)N1CC[C@@H](N(C)c2nc(OC[C@@]34CCCN3C[C@H](F)C4)nc3c(Cl)c(-c4ccc(F)c5sc(N)c(C#N)c45)ncc23)[C@H]1CC [Compound 47] | A (percent of modification ≥70%) | ≤ 100 | A (percent of modification ≥70%) | A (percent of modification ≥70%) | ≤ 500 |
| C=CC(=O)N1CC[C@@H](N(CC)c2nc(OC[C@@]34CCCN3C[C@H](F)C4)nc3c(F)c(-c4ccc(F)c5sc(N)c(C#N)c45)ncc23)[C@@H]1CC [Compound 48] | D (percent of modification <10%) | 100 to 1000 | A (percent of modification ≥70%) | D (percent of modification <10%) | 500 to 5000 |
| C=CC(=O)N1CC[C@@H](N(CC)c2nc(OC[C@@]34CCCN3C[C@H](F)C4)nc3c(Cl)c(-c4ccc(F)c5sc(N)c(C#N)c45)ncc23)[C@@H]1CC [Compound 49] | D (percent of modification <10%) | 100 to 1000 | A (percent of modification ≥70%) | D (percent of modification <10%) | 500 to 5000 |
| C=CC(=O)N1CC[C@@H](N(CC)c2nc(OC[C@@]34CCCN3C[C@H](F)C4)nc3c(F)c(-c4ccc(F)c5sc(N)c(C#N)c45)ncc23)[C@@H]1C [Compound 50] | A (percent of modification ≥70%) | ≤ 100 | A (percent of modification ≥70%) | C (10%≤percent of modification <50%) | ≤ 500 |
| C=CC(=O)N1CC[C@@H](N(CC)c2nc(OC[C@@]34CCCN3C[C@H](F)C4)nc3c(Cl)c(-c4ccc(F)c5sc(N)c(C#N)c45)ncc23)[C@@H]1C [Compound 51] | A (percent of modification ≥70%) | ≤ 100 | A (percent of modification ≥70%) | C (10%≤percent of modification <50%) | ≤ 500 |
